ChEMBL document CHEMBL3621112, “Computationally motivated synthesis and enzyme kinetic evaluation of N-(-d-glucopyranosyl)-1,2,4-triazolecarboxamides as glycogen phosphorylase inhibitors” (Medchemcomm, 2015)

How the values were obtained:
[1] = biological target: T1, Glycogen phosphorylase, muscle form (Oryctolagus cuniculus, UniProt P00489); experiment: Inhibition of glycogen phosphorylase b in rabbit skeletal muscle using glycogen substrate and glucose-1-phosphate by Lineweaver-Burk plot method
T1 sequence (P00489 whole entry): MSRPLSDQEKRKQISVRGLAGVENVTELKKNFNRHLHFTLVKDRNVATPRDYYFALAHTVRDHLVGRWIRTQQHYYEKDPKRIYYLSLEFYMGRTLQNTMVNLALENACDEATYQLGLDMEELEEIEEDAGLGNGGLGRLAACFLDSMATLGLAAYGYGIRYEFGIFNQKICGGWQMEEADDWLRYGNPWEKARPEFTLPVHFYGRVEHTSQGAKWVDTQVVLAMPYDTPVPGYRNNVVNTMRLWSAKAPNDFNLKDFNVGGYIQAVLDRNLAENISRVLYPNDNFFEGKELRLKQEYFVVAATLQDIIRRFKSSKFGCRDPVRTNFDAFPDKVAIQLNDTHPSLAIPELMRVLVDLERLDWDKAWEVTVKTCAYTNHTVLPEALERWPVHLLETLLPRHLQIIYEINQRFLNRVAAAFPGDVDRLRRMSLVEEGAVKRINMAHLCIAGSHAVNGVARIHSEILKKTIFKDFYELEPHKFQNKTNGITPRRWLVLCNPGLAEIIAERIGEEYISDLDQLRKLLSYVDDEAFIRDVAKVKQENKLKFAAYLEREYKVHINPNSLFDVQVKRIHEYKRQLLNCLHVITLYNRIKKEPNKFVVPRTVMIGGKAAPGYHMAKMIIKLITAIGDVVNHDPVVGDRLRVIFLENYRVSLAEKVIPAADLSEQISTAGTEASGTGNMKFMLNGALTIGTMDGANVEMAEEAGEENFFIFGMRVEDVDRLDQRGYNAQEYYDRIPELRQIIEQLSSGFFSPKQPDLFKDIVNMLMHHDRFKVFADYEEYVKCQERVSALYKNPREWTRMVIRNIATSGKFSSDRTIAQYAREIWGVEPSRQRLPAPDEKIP

[2] = Inhibition of glycogen phosphorylase (unknown origin); design: species or system Homo sapiens

| Ki [1] | Ki [2] [µM] | SMILES | Ki ([1]; read-out: Ki) [µM] |
| --- | --- | --- | --- |
| Not Active |  | O=C(N[C@@H]1O[C@H](CO)[C@@H](O)[C@H](O)[C@H]1O)c1noc(-c2ccc3ccccc3c2)n1 |  |
| Not Active |  | O=C(N[C@@H]1O[C@H](CO)[C@@H](O)[C@H](O)[C@H]1O)c1nc(-c2ccc3ccccc3c2)no1 |  |
|  |  | O=C(N[C@@H]1O[C@H](CO)[C@@H](O)[C@H](O)[C@H]1O)c1nnc(-c2ccccc2)[nH]1 | 1 |
|  |  | O=C(N[C@@H]1O[C@H](CO)[C@@H](O)[C@H](O)[C@H]1O)c1nnc(-c2ccc3ccccc3c2)[nH]1 | 9.2 |
|  | 0.35 | O=C(NC(=O)c1ccc2ccccc2c1)N[C@@H]1O[C@H](CO)[C@@H](O)[C@H](O)[C@H]1O |  |
